Assay results reported in patent US9952300B2, “Dynamic contrast enhanced MRI method and agents for the assessment of the macromolecular transport within pathologic tissues” (BRACCO IMAGING S.P.A., priority 2012, dated 2018).
Marks after values point to notes of the source that are not given here.

System: A431 human epidermoid carcinoma xenografts
Assay: DCE-MRI with B22956/1 in A431 xenografts 24 h after PTX or vehicle (Example 5)
Type: in vivo, NCR athymic nude mice
Method: Human epidermoid carcinoma cell line (A431) (supplied by ATCC) were cultured in DMEM (Dulbecco's Modified Eagle Medium) High Glucose medium (4.5 g/L glucose) (Sigma-Aldrich, Steinheim, Germany), supplemented with 10% heat-inactivated foetal bovine serum (Lonza, Verviers, Belgium), 2 mM glutamine (Lonza, Verviers, Belgium), 100 IU/mL penicillin and 100 μg/mL streptomycin (Lonza, Verviers, Belgium) and maintained in a humidified atmosphere with 5% CO2 at 37° C. Exponentially growing cells were harvested and washed two times with PBS. Two million A431 cells were resuspended in 0.1 mL PBS and injected subcutaneously in the right and left flank of each of the 6 week old female mice. Tumors development were followed daily after inoculation, initially by palpation and by caliper once the mass will be established, until the day of the sacrifice. Mice were distributed randomly into 2 groups (Treated and Control) on the day of initial drug treatment when the average tumor diameter reached 7-8 mm, measured by caliper.
Paclitaxel (PTX) (Indena S.p.A., Milan, Italy): PTX solution was prepared in 50% Cremophor EL and 50% ethanol as described in Example 4 and further diluted in saline immediately before use to a final concentration of 2 mg/mL. PTX was administered intravenously (i.v., singular administration) at a dose of 20 mg/kg.
To this extent, 8 mice were divided into 2 groups; 2 animals of each of the two obtained groups were treated with PTX and 2 with vehicle (CTRL). Treatments started 14 days after the tumor implant, when the tumor reached a diameter in the range 7-8 mm, measured by caliper. The animals were administered with PTX or with CTRL at day 14 from the tumor implant (considered as DAY1). 24 hours after the treatment with PTX or CTRL (DAY2) each animal was injected with B22956/1 (used as non-limiting example of contrast agent according to the invention) and imaged with DCE-MRI. MRI imaging was performed pre-contrast and at different time points post-contrast agents administration. […] At DAY3 all the mice were imaged in vivo by Optical Imaging (01); then FITC-Albumin (10 mg/mL) was injected and 5 minutes later the animals were sacrificed. Tumors were excised and a second Optical Imaging acquisition was performed ex vivo. Finally tumors were prepared for the histological examination.
B22956/1, (Bracco Imaging S.p.A., obtained as above referred) was used as MRI contrast agent (CA). B22956/1 was intravenously injected at the dose of 100 μmol/kg, with an administration volume of 4 mL/kg.
24 hours after the treatment with PTX or CTRL each animal was injected with the CA (B22956/1) and imaged with DCE-MRI. The contrast agent was injected intravenously at an injection rate of about 1 mL/min through a catheter placed in the tail vein of the animal. For MR imaging experiments, animals were pre-anaesthetized with isofluorane gas (about 1%) in a mixture of 33% O2 and 66% N2O and the anesthesia was then maintained by adjustment of gas level in function of breath rate. MRI imaging was performed at different time points post-contrast agents administration. In particular, pre-contrast coronal and axial Rare T2-weighted anatomical images were acquired with the optimized parameters for high resolution with a good contrast, to detect the tumour mass. 3D FLASH images (Fast Low Angle Shot; TR about 6-7 milliseconds) with variable flip angle θ (FA=5-90° were acquired before contrast agent injection to estimate the tumour and muscle longitudinal relaxation time by using matrix 128×128×8, slice thickness ˜1.5 mm, FOV ˜3.0×3.0 cm. The same sequences (FA=20°, TR about 6-7 milliseconds) were then acquired to follow CA dynamic in tumor and blood vessels after CA i.v. injection. Flow artifacts were avoided by placing two thick saturation bands just above and below the measured slices. […]

[1] = A431 tumors 24 h after PTX 20 mg/kg i.v., mean of 8 tumors

Row | extravasation of the contrast agent within the first minute after injection (mouse, in vivo) | Compound | AUC10.20 (of B22956/1), Mean (A431 tumors 24 h after PTX 20 mg/kg i.v., 10 to 20 min post injection, mean of 8 tumors) | AUC20.30 (of B22956/1), Mean (A431 tumors 24 h after PTX 20 mg/kg i.v., 20 to 30 min post injection, mean of 8 tumors) | ktrans (of B22956/1), Mean (A431 tumors 24 h after PTX 20 mg/kg i.v., B22956/1 100 μmol/kg, mean of 8 tumors) | AVGENH (of B22956/1), Mean [1] | EARLYAUCRATIO (of B22956/1), Mean [1] | IAUC1 (of B22956/1), Mean [1] | LATEAUCRATIO (of B22956/1), Mean [1] | fPV (of B22956/1), Mean [1] | kep (of B22956/1), Mean [1]
1 | negligible | C[C@H](CCC(=O)[O-])[C@H]1CC[C@H]2[C@@H]3CC[C@@H]4C[C@@H](NC(=O)CC[C@@H](C(=O)[O-])N(CCN(CC(=O)[O-])CC(=O)[O-])CCN(CC(=O)[O-])CC(=O)[O-])CC[C@]4(C)[C@H]3C[C@H](O)[C@]12C.[Gd+3].[Na+].[Na+].[Na+] [B22956/1, Gadocoletic acid trisodium salt] | – | – | – | – | – | – | – | – | –
2 | – | CC(=O)O[C@H]1C(=O)[C@@]2(C)[C@H]([C@H](OC(=O)c3ccccc3)[C@]3(O)C[C@H](OC(=O)[C@H](O)[C@@H](NC(=O)c4ccccc4)c4ccccc4)C(C)=C1C3(C)C)[C@]1(OC(C)=O)CO[C@@H]1C[C@@H]2O [PTX, Paclitaxel] | 27* | 25.3** | 0.0255* | 54* | 0.036 | 0.8 | 1.14** | 0.038 | 0.112
